Laboratory results published in US20200022995A1, “Novel Immunodulating Small Molecules” (AyuVis Research, Inc., priority 2018, published 2020).
In brackets after ≈: the same amount, converted by molar mass.

What was measured:
THP-1 cells = experiment: Monocyte differentiation, phagocytosis and intracellular killing of Pseudomonas aeruginosa in THP-1 cells; type: cell-based, human
From the text: Two of these compounds 8 and 32 stimulated monocyte differentiation into macrophages, increased phagocytosis of Pseudomonas aeruginosa (FIG. 18) and increased intracellular killing of bacteria (FIG. 19). These compounds have potential to be used as vaccine adjuvants and in combination with existing antibiotic for prophylactic treatment such as in cystic fibrosis patients.

TLR1/2 = biological target: T1, TLR1/2 (Homo sapiens, UniProt O60603); experiment: IL-6 ELISA in hPBMC with TLR1/2 ligand Pam3CSK4; type: cell-based; settings: 0.1 μM to <1 μM, 24 h
T1 construct: downregulate the IL-6 protein level in hPBMC after 24 h; endogenous in cells; host or cells: hPBMC
From the text: Compound 8 modulates the TLR1/2 activities in a concentration dependent manner.

TLR6 = biological target: T2, TLR6 (Homo sapiens, UniProt Q9Y2C9); experiment: IL-6 ELISA in hPBMC with TLR6 ligand Pam2CSK4; type: cell-based; settings: 24 h
T2 construct: in combination with TLR6 ligand Pam2CSK4 in hPBMC after 24 h of treatment; endogenous in cells; host or cells: hPBMC
T2 sequence (Q9Y2C9 32-796): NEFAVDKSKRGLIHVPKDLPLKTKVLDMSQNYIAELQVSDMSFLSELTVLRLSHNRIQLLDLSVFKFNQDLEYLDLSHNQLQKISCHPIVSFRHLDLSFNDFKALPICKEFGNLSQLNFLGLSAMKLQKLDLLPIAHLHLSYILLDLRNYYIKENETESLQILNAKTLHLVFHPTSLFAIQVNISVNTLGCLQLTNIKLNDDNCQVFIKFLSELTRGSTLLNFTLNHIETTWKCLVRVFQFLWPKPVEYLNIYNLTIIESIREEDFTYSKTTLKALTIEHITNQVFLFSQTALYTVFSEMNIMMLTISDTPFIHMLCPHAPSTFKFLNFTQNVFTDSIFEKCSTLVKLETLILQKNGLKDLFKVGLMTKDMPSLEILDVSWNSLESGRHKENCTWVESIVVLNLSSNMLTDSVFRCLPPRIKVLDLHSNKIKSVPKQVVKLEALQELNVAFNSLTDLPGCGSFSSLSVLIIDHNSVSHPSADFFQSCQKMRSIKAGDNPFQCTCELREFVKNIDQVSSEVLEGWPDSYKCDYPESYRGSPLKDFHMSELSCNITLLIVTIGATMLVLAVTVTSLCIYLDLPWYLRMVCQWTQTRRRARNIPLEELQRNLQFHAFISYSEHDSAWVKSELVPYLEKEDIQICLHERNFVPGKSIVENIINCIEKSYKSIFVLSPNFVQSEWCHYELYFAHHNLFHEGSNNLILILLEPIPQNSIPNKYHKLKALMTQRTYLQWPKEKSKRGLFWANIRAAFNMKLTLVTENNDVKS
Experimental: Compound 8 stimulates the TLR6 activities and upregulates the production of IL-6 cytokine in combination with TLR6 ligand Pam2CSK4 in hPBMC after 24 h of treatment as detected by ELISA (FIG. 9).

[1] = system: E. coli, P. aeruginosa, A. baumanni, MRSA; experiment: Broth dilution assay against gram negative and gram positive bacteria; type: cell-based
[2] = system: P. aeruginosa (ATCC-10145 GFP) infected skin wounds; experiment: Murine skin wound infection with P. aeruginosa; type: in vivo, C57BL/6 mice
Experimental: Five groups of C57BL/6 mice (8-10 weeks old, n=4) were wounded on the dorsal surface. 25 ul containing 10^6 CFU/mL P. aeruginosa in a PBS suspension were pipetted onto the wound and allowed to absorb for at least 3 min. […] Subsequently and for the next 13 days, infected wounds were treated each alternate day with colistin, or with test compounds.

[3] = system: hyperoxia-induced lung injury in mice; experiment: Hyperoxia induced ALI model; type: in vivo, C57BL/6 mice; settings: IP, 10 mg/kg
Experimental: Male C57BL/6 mice (Jackson Laboratories,) 12-15 weeks old, 25-28 gms, housed up to 5 per cage were used.
Hyperoxia induced ALI model: The ARDS model consists of exposing adult mice in 100% oxygen for 48 h followed by injecting with test compounds. Adult mice (N=5) were housed in plexi chamber with a constant and continuous supply of 100% oxygen for 48 h. […] The mice were sacrificed after 48 h to harvest lung tissues and collect (BAL) fluid.

neonatal pups with BPD = experiment: Hyperoxia mouse model of BPD (newborn pups); type: in vivo
From the text: Neonatal mice and humans undergo similar stages of lung development but differ with respect to the duration of each stage and its temporal relationship to gestational age. The lungs of the mouse born at term are in the saccular stage and are surfactant sufficient; this can be considered somewhat akin to a human preterm neonate in the same stage of lung development that has been exposed to a full complement of antenatal steroids (which is known to enhance surfactant production). In terms of mimicking the human condition, the most successful hyperoxia models are those that limit exposure to hyperoxia to the saccular stage of pulmonary development. The mouse BPD model involves exposing newborn mice (postnatal day 1 or PN1) to 100% oxygen till PN4 followed by recovery in room air (RA) for another 10 days.
After the recovery period, their lungs were harvested and processed for quantitative PCR, western blotting, histopathology and ELISA.
Each of the compounds 3, 8 or 32 encapsulated in PLGA nanoparticles referred as 3NP, 8NP and 32NP was instilled intranasally (IN) as nanosuspension to newborn pups on PN2 and PN4 at different doses (FIG. 28). After the recovery period, their lungs were harvested and processed for quantitative PCR, western blotting and histopathology and ELISA.
BPD is characterized by large simplified alveoli, inflammation, increased cell death, decreased cell proliferation, dysmorphic capillary configuration, and variable interstitial cellularity and/or fibroproliferation. […] This is determined by measuring the alveolar chord length, septal thickness and radial alveolar count (RAC). In BPD, the alveolar area increases which is characterized by increase in the diameter of the alveolar sacs, the septa become thickened (thus interfering in gaseous exchange) and the RAC, a parameter used to assess the complexity of terminal respiratory unit by pulmonologists, decreases as a result of arrested lung development.

TLR4 = TLR4 (Homo sapiens, UniProt O00206); experiment: IL-1β ELISA in hPBMC, alone or with TLR4 ligand LPS; type: cell-based; parameters: endogenous in cells
From the text: Compound 8 modulates the TLR4 activities in a concentration dependent manner.

TLR4, sequence (O00206 24-839): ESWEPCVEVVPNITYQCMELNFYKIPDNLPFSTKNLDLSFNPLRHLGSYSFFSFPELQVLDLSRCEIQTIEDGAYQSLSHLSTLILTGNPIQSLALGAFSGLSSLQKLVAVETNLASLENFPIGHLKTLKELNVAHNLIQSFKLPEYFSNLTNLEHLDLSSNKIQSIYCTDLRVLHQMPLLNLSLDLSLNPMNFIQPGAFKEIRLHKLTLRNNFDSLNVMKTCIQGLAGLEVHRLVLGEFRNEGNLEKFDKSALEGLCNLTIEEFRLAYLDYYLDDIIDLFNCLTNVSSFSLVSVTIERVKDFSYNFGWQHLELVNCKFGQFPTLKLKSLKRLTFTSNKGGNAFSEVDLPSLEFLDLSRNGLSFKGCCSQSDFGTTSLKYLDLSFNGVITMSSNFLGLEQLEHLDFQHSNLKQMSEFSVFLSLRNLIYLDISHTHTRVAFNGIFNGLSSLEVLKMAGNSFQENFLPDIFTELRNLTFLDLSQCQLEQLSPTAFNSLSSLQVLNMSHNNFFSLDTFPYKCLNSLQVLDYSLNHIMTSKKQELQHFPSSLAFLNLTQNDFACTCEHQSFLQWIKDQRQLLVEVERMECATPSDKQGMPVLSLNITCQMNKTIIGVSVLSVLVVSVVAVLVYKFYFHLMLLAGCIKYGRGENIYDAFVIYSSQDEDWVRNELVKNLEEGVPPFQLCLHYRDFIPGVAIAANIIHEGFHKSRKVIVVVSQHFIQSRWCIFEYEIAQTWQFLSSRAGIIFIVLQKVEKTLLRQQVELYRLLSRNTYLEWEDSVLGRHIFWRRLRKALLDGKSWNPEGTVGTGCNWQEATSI
T1 sequence (O60603 21-784): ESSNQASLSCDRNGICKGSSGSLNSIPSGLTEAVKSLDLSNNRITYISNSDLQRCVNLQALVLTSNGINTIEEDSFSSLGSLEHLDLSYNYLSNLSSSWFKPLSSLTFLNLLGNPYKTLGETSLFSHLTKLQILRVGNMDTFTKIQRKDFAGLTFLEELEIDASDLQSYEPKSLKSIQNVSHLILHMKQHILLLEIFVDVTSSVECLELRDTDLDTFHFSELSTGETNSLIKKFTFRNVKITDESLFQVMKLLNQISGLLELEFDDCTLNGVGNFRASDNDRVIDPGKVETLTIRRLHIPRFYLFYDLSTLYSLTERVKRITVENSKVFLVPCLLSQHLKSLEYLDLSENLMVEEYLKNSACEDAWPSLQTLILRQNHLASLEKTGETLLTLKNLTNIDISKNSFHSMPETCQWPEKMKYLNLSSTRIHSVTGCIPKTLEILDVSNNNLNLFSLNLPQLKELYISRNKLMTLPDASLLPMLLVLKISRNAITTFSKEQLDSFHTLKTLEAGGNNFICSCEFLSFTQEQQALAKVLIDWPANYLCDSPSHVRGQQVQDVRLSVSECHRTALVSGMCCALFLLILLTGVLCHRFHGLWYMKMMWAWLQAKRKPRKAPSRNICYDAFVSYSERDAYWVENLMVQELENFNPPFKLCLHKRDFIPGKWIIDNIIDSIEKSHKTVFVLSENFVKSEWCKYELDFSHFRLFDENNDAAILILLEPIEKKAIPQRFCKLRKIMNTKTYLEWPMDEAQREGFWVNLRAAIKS

SMILES: CC(=O)N[C@H]1[C@H](Oc2ccc([N+](=O)[O-])cc2)O[C@H](CO)[C@@H](O)[C@@H]1O [Compound 8, p-Nitrophenyl 2-acetamido-2-deoxy-β-D-glucopyranoside]
- monocyte differentiation into macrophages (THP-1 cells): stimulated
- intracellular killing of bacteria (THP-1 cells; Pseudomonas aeruginosa, THP-1 cells): increased
- phagocytosis of Pseudomonas aeruginosa (THP-1 cells; THP-1 cells): increased
- IL-6 protein level (TLR1/2): downregulate
- production of IL-6 cytokine (TLR6): upregulates
- MIC90 ([1]; compound alone, range over the bacteria screened): 50 to 200 µg/mL (≈ 146 to 584 µM)
- MIC ([1]; in combination with colistin): 3.1 to 6.25 µg/mL
- wound closure at day 13 ([2]; 25 μl Colistin 4 μg/ml or compound 100 μg/ml, each alternate day): complete closure
- bacterial numbers versus untreated control ([2]; 13 days post infection): statistically significant reduction
- re-epithelialization and granulation tissue versus controls ([2]; H&E histology, day 13 post-injury): borderline non-significant
- CFU in tissues ([2]; topical, 100 μM, C57BL6 mice): decreased
- closure of P. aeruginosa infected skin wounds ([2]; topical, 100 μM, C57BL6 mice): effectively closed
- protection against hyperoxia induced lung injury ([3]; 100% oxygen 48 h): significant protection
- hyperoxia-induced lung inflammation ([3]; mice): ameliorated
- anti-inflammatory cytokine IL-10 (neonatal pups with BPD; 10 mg/kg, ELISA): increase
- inflammatory cytokines and chemokines (MIP-2, MCP-1, IL-17, IFN-Y, TNF-α, IL-1β, and IL-6) (neonatal pups with BPD; 10 mg/kg, ELISA): decreases
- lung injury in neonatal pups with BPD (neonatal pups with BPD; mouse model of BPD): prevent lung injury
- TLR4 inhibition in an in vivo model system (neonatal pups with BPD; neonatal pups with BPD): inhibit TLR4
- lung architecture (neonatal pups with BPD; saline IV and nanosuspension IN): restored
- IL-1β protein level (TLR4; 0.1 μM to <1 μM, alone or with LPS, 24 h, ELISA): downregulate
- production of IL-1β (TLR4; 1.0 μM, alone and with LPS): significantly stimulated
